Measurements taken from patent US20050215548A1 (Cyclacel Limited, priority 2002, published 2005).
Like-named read-outs stand apart in the source and are kept apart here.

Columns and labels:
[1] = test system: H1299; assay: 72-h MTT cytotoxicity assay, H1299; assay type: cell-based; conditions: Homo sapiens
Summary of the method: (§1)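 Anti-proliferative activity was measured by standard 72-h MTT assay. AGS is gastric adenocarcinoma with wild-type p53; H1299 is p53-null large cell lung carcinoma with low HDM2; SJSA-1 is bone sarcoma with wild-type p53 and overexpressed HDM2.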

[2] = test system: sarcoma cell lines; assay: 72-h MTT panel, average sarcomas; assay type: cell-based; conditions: Homo sapiens, average over sarcoma cell lines, read-out: Anti-proliferative activity, 72-h MTT IC50, Average sarcomas
Procedure: (§2) Representative bisarylsulfonamide compounds were tested on a panel of transformed and non-transformed human cell lines, using a standard 72-h MTT cytotoxicity assay [Haselsberger K et al, ibid].
(§3) This differential selectivity further supports the notion that the bisarylsulfonamides modulate cellular HDM2 function. It is known that HDM2 amplification is particularly common in soft tissue sarcomas and osteosarcomas [Momand J et al, ibid; Bartel F, Meye A, Wurl P, Kappler M, Bache M, Lautenschlager C, Grunbaum U, Schmidt H, Taubert H; Int. J. Cancer 2001; 95: 168-175].

[3] = test system: Messa-Dx5; assay: 72-h MTT cytotoxicity assay, Messa-Dx5; assay type: cell-based; conditions: Homo sapiens, MES-SA/Dx5, 72 h; Messa-Dx5, Uterus sarcoma; read-out: Anti-proliferative activity, 72-h MTT IC50
Procedure: as §2

[4] = test system: IMR90; assay: 72-h MTT cytotoxicity assay, IMR90; assay type: cell-based; conditions: Homo sapiens, IMR-90, 72 h; IMR90, Lung fibroblasts; read-out: Anti-proliferative activity, 72-h MTT IC50
Procedure: as §2

[5] = test system: U2OS; assay: 72-h MTT cytotoxicity assay, U2OS; assay type: cell-based; conditions: Homo sapiens, Osteosracoma, read-out: Anti-proliferative activity, 72-h MTT IC50
Procedure: as §2

[6] = test system: Saos-2; assay: 72-h MTT cytotoxicity assay, Saos-2; assay type: cell-based; conditions: Homo sapiens, Saos-2, Osteosracoma, read-out: Anti-proliferative activity, 72-h MTT IC50
Procedure: as §2

[7] = test system: WI38; assay: 72-h MTT cytotoxicity assay, WI38; assay type: cell-based; conditions: Homo sapiens, WI-38, 72 h; WI38, Lung fibroblasts; read-out: Anti-proliferative activity, 72-h MTT IC50
Procedure: as §2

[8] = test system: MCF7; assay: 72-h MTT cytotoxicity assay, MCF7; assay type: cell-based; conditions: Homo sapiens, MCF7, Breast adenocarcinoma, read-out: Anti-proliferative activity, 72-h MTT IC50
Procedure: as §2

[9] = test system: NaCat; assay: 72-h MTT cytotoxicity assay, NaCat; assay type: cell-based; conditions: Keratinocyte, Human keratinocytes, read-out: Anti-proliferative activity, 72-h MTT IC50
Procedure: as §2

[10] = test system: SK-N-MC; assay: 72-h MTT cytotoxicity assay, SK-N-MC; assay type: cell-based; conditions: Homo sapiens, Neuriepithelioma, read-out: Anti-proliferative activity, 72-h MTT IC50
Procedure: as §2

[11] = test system: transformed human cell lines; assay: 72-h MTT panel, average transformed; assay type: cell-based; conditions: average over transformed cell lines, read-out: Anti-proliferative activity, 72-h MTT IC50, Average transformed
Procedure: as §2, §3

[12] = test system: HS27; assay: 72-h MTT cytotoxicity assay, HS27; assay type: cell-based; conditions: Homo sapiens, HS27, Foreskin fibroblasts, read-out: Anti-proliferative activity, 72-h MTT IC50
Procedure: as §2

[13] = test system: HT29; assay: 72-h MTT cytotoxicity assay, HT29; assay type: cell-based; conditions: Homo sapiens, HT-29, 72 h; HT29, Colon adenocarcinoma; read-out: Anti-proliferative activity, 72-h MTT IC50
Procedure: as §2

[14] = test system: carcinoma cell lines; assay: 72-h MTT panel, average carcinomas; assay type: cell-based; conditions: Homo sapiens, average over carcinoma cell lines, read-out: Anti-proliferative activity, 72-h MTT IC50, Average carcinomas
Procedure: as §2, §3

[15] = test system: A549; assay: 72-h MTT cytotoxicity assay, A549; assay type: cell-based; conditions: Homo sapiens, A549, Lung carcinoma, read-out: Anti-proliferative activity, 72-h MTT IC50
Procedure: as §2

[16] = test system: HeLa; assay: 72-h MTT cytotoxicity assay, HeLa; assay type: cell-based; conditions: Homo sapiens, Cervical carcinoma, read-out: Anti-proliferative activity, 72-h MTT IC50
Procedure: as §2

[17] = test system: HCT116; assay: 72-h MTT cytotoxicity assay, HCT116; assay type: cell-based; conditions: Homo sapiens, HCT-116, 72 h; HCT116, Colon carcinoma; read-out: Anti-proliferative activity, 72-h MTT IC50
Procedure: as §2

[18] = test system: E2F transcription factors; assay: E2F reporter gene assay (A549-derived luciferase reporter cell line); assay type: cell-based; conditions: Homo sapiens
Procedure: A similar system to the p53 reporter assay described above was used, with the exception that it was designed to be responsive to E2F transcription factors rather than p53. An A549-derived cell line stably transfected with an E2F response element and a luciferase reporter gene was created. The genetic expression cassette construct used was from Clontech (Mercury™ Cell Cycle Profiling System). Assays were carried out as described above.
Representative bisarylsulfonamides were tested in the E2F gene reporter assay described in Example 6.

[19] = test system: DU145; assay: 72-h MTT cytotoxicity assay, DU145; assay type: cell-based; conditions: Homo sapiens, DU-145, 72 h; DU145, Prostate carcinoma; read-out: Anti-proliferative activity, 72-h MTT IC50
Procedure: as §2

[20] = test system: AGS; assay: 72-h MTT cytotoxicity assay, AGS; assay type: cell-based; conditions: Homo sapiens
Summary of the method: as §1

[21] = target: T1, HDM2 (Homo sapiens, UniProt Q00987); assay: Fluorescence polarisation competitive HDM2 binding assay
T1 construct: Recombinant HDM2 (1.5 μg per well) in TBS-BSA buffer
T1 sequence (Q00987 whole entry): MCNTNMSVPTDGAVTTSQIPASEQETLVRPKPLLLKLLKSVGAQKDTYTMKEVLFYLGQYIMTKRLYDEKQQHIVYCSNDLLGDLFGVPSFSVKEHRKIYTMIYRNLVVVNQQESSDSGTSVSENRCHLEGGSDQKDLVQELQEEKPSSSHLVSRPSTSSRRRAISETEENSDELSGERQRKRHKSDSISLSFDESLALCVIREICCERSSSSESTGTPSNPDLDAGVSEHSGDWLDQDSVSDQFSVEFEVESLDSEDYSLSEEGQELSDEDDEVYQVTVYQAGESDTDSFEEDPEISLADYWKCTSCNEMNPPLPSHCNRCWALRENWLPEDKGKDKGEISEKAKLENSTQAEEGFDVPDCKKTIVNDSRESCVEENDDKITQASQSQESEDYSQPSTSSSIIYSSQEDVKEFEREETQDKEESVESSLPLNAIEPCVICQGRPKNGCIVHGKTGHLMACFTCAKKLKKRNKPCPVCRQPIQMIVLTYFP
Summary of the method: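 Recombinant HDM2 (1.5 μg/well) was preincubated 5 min at room temperature with serially diluted compound in 50 mM Tris pH 7.4, 150 mM NaCl, 0.1% BSA, 5% DMSO final. Fluorescein-labelled p53 peptide (0.2 μM) was then added for 45 min. Polarisation was read at 485/520 nm and IC50 derived from dose-response curves.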

[22] = NCI-H1299, 72 h, H1299, Large cell lung carcinoma, Table 2, read-out: Anti-proliferative activity, 72-h MTT IC50
[23] = NCI-H1299, 72-h MTT, Table 1, read-out: IC50 Anti-proliferative effect on cell line H 1299
[24] = after 3-h treatment with test compounds, read-out: IC50 E2F reporter, Non-synchronised cells
[25] = 72-h MTT, Table 1, read-out: IC50 Anti-proliferative effect on cell line AGS
[26] = 72 h, Gastric adenocarcinoma, Table 2, read-out: Anti-proliferative activity, 72-h MTT IC50
[27] = fluorescence polarisation assay, Table 3, read-out: In vitro competitive HDM2 binding assay IC50
[28] = fluorescence polarisation format, Table 1, read-out: IC50 In vitro competitive HDM2 binding assay
[29] = after 3-h treatment, synchronisation with 0.3 mM mimosine for 24 h, followed by wash-out, read-out: IC50 E2F reporter, Synchronised cells

| Structure (SMILES) | IC50 [1, 22] [µM] | IC50 [1, 23] [µM] | IC50 [2] [µM] | IC50 [3] [µM] | IC50 [4] [µM] | IC50 [5] [µM] | IC50 [6] [µM] | IC50 [7] [µM] | IC50 [8] [µM] | IC50 [9] [µM] | IC50 [10] [µM] | IC50 [11] [µM] | IC50 [12] [µM] | IC50 [13] [µM] | IC50 [14] [µM] | IC50 [15] [µM] | IC50 [16] [µM] | IC50 [17] [µM] | IC50 [18, 24] [µM] | IC50 [19] [µM] | also measured |
| --- | --- | --- | --- | --- | --- | --- | --- | --- | --- | --- | --- | --- | --- | --- | --- | --- | --- | --- | --- | --- | --- |
| O=[N+]([O-])c1cc(S(=O)(=O)Nc2ccc(Cl)cc2)sc1Cl [Compound 2, 5-Chloro-4-nitrothiophene-2-sulfonic acid (4-chlorophenyl)-amide] | 4.4 | 5.1 ± 0.7 | 10.2 ± 2.7 | 9.5 | 23.1 | 6.2 | 9.5 | 22.7 | 2.7 | 9.3 | 3 | 5.7 ± 3.9 | 17.3 | 2.1 | 3.1 ± 1.2 | 5.2 | 2.8 | 2.8 | 23.2 ± 4 | 3.1 | IC50 ([1]; NCI-H1299, H1299, Example 9, read-out: anti-proliferative IC50 concentration determined for each cell line): 5 µM; IC50 [20, 25]: 1.1 ± 0.2 µM; IC50 [20, 26]: 1.2 µM; IC50 ([20]; Example 9, read-out: anti-proliferative IC50 concentration determined for each cell line): 1 µM; IC50 [21, 27]: 26.4 ± 3.4 µM; IC50 [21, 28]: 26.4 ± 3.4 µM |
| O=[N+]([O-])c1cc(S(=O)(=O)Nc2ccc(F)cc2)sc1Cl [Compound 3, 5-Chloro-4-nitrothiophene-2-sulfonic acid (4-fluorophenyl)amide] | 5.2 | 5.7 ± 0.4 | 12.1 ± 3.8 | 12.1 | 19.8 | 8.2 | 8.9 | 21.1 | 1.9 | 10.5 | 3.8 | 6.9 ± 5 | 15.2 | 2.3 | 3.8 ± 1.8 | 5.9 | 2.7 | 3.5 | 28.8 ± 2.3 | 3.6 | IC50 [18, 29]: 69 ± 30 µM; IC50 [20, 25]: 1.5 ± 0.3 µM; IC50 [20, 26]: 1.7 µM; IC50 [21, 27]: 41.9 ± 5.8 µM; IC50 [21, 28]: 41.9 ± 5.8 µM |
| O=[N+]([O-])c1cc(S(=O)(=O)Nc2ccc(C(F)(F)F)cc2)sc1Cl [Compound 6, 5-Chloro-4-nitrothiophene-2-sulfonic acid (4-trifluoromethylphenyl)amide] | 4.9 | 8.1 ± 1.3 | 13.7 ± 3.1 | 15.5 | 29.8 | 10.2 | 12 | 30 | 3.3 | 10.6 | 2.9 | 8.4 ± 5.1 | 21.4 | 3.5 | 4.9 ± 2.3 | 10 | 3.9 | 6 | 37.5 ± 12.9 | 6.1 | IC50 [18, 29]: 39 µM; IC50 [20, 25]: 2 ± 0.3 µM; IC50 [20, 26]: 2.2 µM; IC50 [21, 27]: 20.4 ± 1.4 µM; IC50 [21, 28]: 20.4 ± 1.4 µM |
